Entries after “also recorded” stand apart in the source; their conditions may differ. No end group written: not given here.
What was measured:
[1] = test system: four cancer cell lines (SKOV-3, ES-2, NIH:OVCAR-3, HEC-1A); design: method as in ATCC Global Bioresource Center (USA); settings: ref ATCC Global Bioresource Center (USA); cited from earlier work
[2] = test system: ES-2 tumors xenografted into nude mice; experiment: ES-2 xenograft study in nude mice; format: in vivo, BALB/c-nu mice
Method: (§1) Five- to six-week-old female (15–20 g) athymic nude mice (BALB/c-nu) were obtained from Shanghai SLAC Laboratory Animal Corporation, China. The animals were housed in sterile cages under laminar flow hoods in a temperature controlled room with a 12-hour light/12-hour dark cycle, and fed autoclaved chow and water ad libitum. All experiments were carried out in accordance with the guidelines for the welfare ethics of experimental animals. All the animal-related procedures were approved by the Animal Ethical Committee of Zhejiang University.
(§2) Cultured ES-2 ovarian cancer cells were resuspended at 1 × 10^7/ml and inoculated subcutaneously into the nude mouse armpit. When tumors reached 60 mm^3, they were extracted, cut into pieces of about 2 mm^3, and inoculated subcutaneously into the nude mouse armpit. When the tumors reached an average volume of about 100 mm^3, the mice were randomly divided into five groups (n = 10). Groups 1–3 received intra-tumor injection of CB-LHRH’ twice daily at 12.5, 25 or 50 mg/kg^.d, respectively.
Tumor volumes were assessed every 3 d as 0.5 × length × width^2 (where length is the longest diameter across the tumor and width the corresponding perpendicular diameter as measured by calipers). On day 13, 4 h after the last dose, mice were sacrificed, and tumors excised and weighed; tumor growth inhibition rate was derived as (1-tumor weight treated/tumor weight control) × 100 %.
Anti-tumor activity was evaluated as relative growth of tumor volume (T/C, value), the mean relative tumor volume (RTV) for the treatment group divided by the mean RTV for the control group, as follows: T/C (%) = TRTV/CRTV X 100 %. RTV = Vt/V0, where Vt is the volume on any given day, and V0 the volume at treatment start.

[3] = test system: Enterobacter cloacae; experiment: Antibacterial assay (agar dilution), Enterobacter cloacae; format: cell-based; settings: Muller Hinton’s agar, 22 h at 35 °C, clinical isolates
Method: (§3) The antibacterial activity of CB-LHRH’ was evaluated by the agar dilution method. Muller Hinton’s agar medium plates containing serial dilutions of CB-LHRH’ were inoculated with 2 μL of tenfold-diluted 0.5 McF bacteria and incubated for 22 h at 35 °C. The lowest concentration of CB-LHRH’ inhibiting bacterial growth was considered the minimal inhibitory concentration (MIC). Nine clinical strains of the following species were evaluated: Staphylococcus aureus, Klebsiella pneumoniae, Escherichia coli, Enterobacter cloacae, Pseudomonas aeruginosa, and Acinetobacter baumannii.

[4] = test system: Staphylococcus aureus; experiment: Antibacterial assay (agar dilution), Staphylococcus aureus; format: cell-based; settings: Muller Hinton’s agar, 22 h at 35 °C, clinical isolates, listed as Cecropin B-LHRH’
Method: as §3

[5] = test system: Klebsiella pneumoniae; experiment: Antibacterial assay (agar dilution), Klebsiella pneumoniae; format: cell-based; settings: Muller Hinton’s agar, 22 h at 35 °C, clinical isolates
Method: as §3

[6] = test system: Acinetobacter baumannii; experiment: Antibacterial assay (agar dilution), Acinetobacter baumannii; format: cell-based; settings: Muller Hinton’s agar, 22 h at 35 °C, clinical isolates
Method: as §3

[7] = test system: guinea pigs; experiment: Hypersensitization test in guinea pigs; settings: n = 6
Method: Under approved animal research protocol standards, the hypersensitive reaction against CB-LHRH’ (2 mg/mL, equal to 438 μM) was assessed in guinea pigs. According to the Chinese Pharmacopoeia, six animals with an average weight of 250 g (XiFengYang Special Economic Animal Farm, Huzhou, China) were administered an intraperitoneal injection of 0.5 mL of CB-LHRH’ every other day three times, while three additional animals received PBS physiological saline injections. Of the six animals administered CB-LHRH’, three received an intravenous injection of 1 mL CB-LHRH’ at day 15, and the remaining three at day 22. Allergic reactions, such as piloerection, sneezing, lacrimation, dyspnoea, and hyperspasmia, were then monitored for the next 30 min.

[8] = test system: nude mice; experiment: General toxicity (survival, body weight) in ES-2 xenograft mice; format: in vivo, BALB/c-nu mice; settings: for surviving mice: intra-tumoral, twice daily, thirteen days later, n = 10 (PBS: 9 survived)
Method: as §1, §2
General toxicity was evaluated based on body weight, measured weekly.

[9] = test system: Pseudomonas aeruginosa; experiment: Antibacterial assay (agar dilution), Pseudomonas aeruginosa; format: cell-based; settings: Muller Hinton’s agar, 22 h at 35 °C, clinical isolates, listed as Cecropin B-LHRH’
Method: as §3

[10] = test system: Escherichia coli; experiment: Antibacterial assay (agar dilution), Escherichia coli; format: cell-based; settings: Muller Hinton’s agar, 22 h at 35 °C, clinical isolates
Method: as §3

[11] = molecular target: T1, LHRH receptor (LHRHr) (Rattus norvegicus, UniProt P30969); experiment: radioligand saturation binding (Scatchard), rat pituitary membranes
T1 chain: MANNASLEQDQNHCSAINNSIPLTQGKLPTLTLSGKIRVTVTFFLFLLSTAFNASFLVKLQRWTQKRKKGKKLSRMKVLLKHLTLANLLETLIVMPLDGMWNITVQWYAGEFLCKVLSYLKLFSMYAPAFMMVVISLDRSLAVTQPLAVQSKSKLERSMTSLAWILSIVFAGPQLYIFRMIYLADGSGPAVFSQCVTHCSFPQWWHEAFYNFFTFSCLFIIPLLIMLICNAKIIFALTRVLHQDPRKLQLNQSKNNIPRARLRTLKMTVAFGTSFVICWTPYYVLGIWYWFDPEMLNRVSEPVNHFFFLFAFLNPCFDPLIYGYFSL

For `COc1cccc2c1C(=O)c1c(O)c3c(c(O)c1C2=O)C[C@@](O)(C(=O)CO)C[C@@H]3O[C@H]1C[C@H](N)[C@H](O)[C@H](C)O1` [doxorubicin], the “resistance of the cell lines to the drug” value [1] is given as “resistant”.

In the case of diphtheria toxin, the “resistance of the cell lines to the drug” value [1] is listed as “resistant”.

With `N.N.[Cl][Pt][Cl]` [Cisplatin] the “Tumor Volume, d 1” value ([2]; cisplatin 0.67 mg/kg.d (2 mg/kg once every 3 days), d 1, Mean ± SD, n = 10 per group) was 343.91 ± 123.06 mm^3, the “Tumor Volume, d 13” value ([2]; cisplatin 0.67 mg/kg.d (2 mg/kg once every 3 days), d 13, Mean ± SD, ** P < 0.01 vs PBS) was 913.16 ± 142.64** mm^3 and the T/C ([2]; cisplatin 0.67 mg/kg.d (2 mg/kg once every 3 days), d 13, RTV treated/RTV PBS control, ≤60 % = active) was 42%. The “Tumor Weight” value ([2]; cisplatin 2 mg/kg once every 3 days, d 13, Mean ± SD, **P < 0.01 vs PBS) was 1.09 ± 0.25 ** g and the “resistance of the cell lines to the drug” value [1] was “resistant”.

“KWKVFKKIEKMGRNIRNGIVKAGPAIAVLGEAKALSYGLRPG [CB-LHRH’]” showed an MIC [3] of 3.86 to 7.72 µM, an MIC [4] of over 15.44 µM and an MIC [5] of 3.86 to 7.72 µM. The MIC [6] was 1.93 to 7.72 µM, the hypersensitivity / anaphylaxis ([7]; 0.5 mL of 2 mg/mL i.p. every other day three times, then 1 mL i.v. at day 15 or 22, monitored 30 min, data not shown) was “no hypersensitivity; also recorded: No anaphylaxis occurred in any of the six guinea pigs; also recorded: no hypersensitive reactions in guinea pigs” and the survival ([7]; 0.5 mL of 2 mg/ml i.p. every other day three times) was “survived the 15 days of treatment”. It also gave a surviving mice ([8]; CB-LHRH’ 12.5 mg/kg.d) of 8, a surviving mice ([8]; CB-LHRH’ 25 mg/kg.d) of 9 and a surviving mice ([8]; CB-LHRH’ 50 mg/kg.d) of 7. The animal weights ([8]; CB-LHRH’ intra-tumoral, by day 13) was “no differences were found in animal weights”, the MIC [9] was “> = 15.44 μM” and the MIC [10] was 3.86 to 7.72 µM.

Work on KWKVFKKIEKMGRNIRNGIVKAGPAIAVLGEAKALSYGLRPG (also: 125I-labelled) [Cecropin B-LHRH' (CB-LHRH')] yielded a Kd [11] of 0.253 nM.

Source: publication PMC4809036, “Antitumor effects of cecropin B-LHRH’ on drug-resistant ovarian and endometrial cancer cells” (BMC Cancer, 2016)
